Reference: patent US6613879B1, “FAP-activated anti-tumour compounds” (Boehringer Ingelheim Pharma KG, priority 1999, dated 2003)

Legend:
[1] = molecular target: T1, cell-bound FAPα (FAP-expressing cell line HT1080 clone 33) (Homo sapiens, UniProt Q12884); experiment: Release of free doxorubicin by cell-bound FAPα, HT1080 clone 33 cells; assay type: cell-based; settings: 1 μM conjugate, serum-free medium, 19 hours at 37° C.
T1 construct: expressed in transfected cells; host or cells: HT1080 fibrosarcoma cells, clone 33
T1 sequence (Q12884 1-760): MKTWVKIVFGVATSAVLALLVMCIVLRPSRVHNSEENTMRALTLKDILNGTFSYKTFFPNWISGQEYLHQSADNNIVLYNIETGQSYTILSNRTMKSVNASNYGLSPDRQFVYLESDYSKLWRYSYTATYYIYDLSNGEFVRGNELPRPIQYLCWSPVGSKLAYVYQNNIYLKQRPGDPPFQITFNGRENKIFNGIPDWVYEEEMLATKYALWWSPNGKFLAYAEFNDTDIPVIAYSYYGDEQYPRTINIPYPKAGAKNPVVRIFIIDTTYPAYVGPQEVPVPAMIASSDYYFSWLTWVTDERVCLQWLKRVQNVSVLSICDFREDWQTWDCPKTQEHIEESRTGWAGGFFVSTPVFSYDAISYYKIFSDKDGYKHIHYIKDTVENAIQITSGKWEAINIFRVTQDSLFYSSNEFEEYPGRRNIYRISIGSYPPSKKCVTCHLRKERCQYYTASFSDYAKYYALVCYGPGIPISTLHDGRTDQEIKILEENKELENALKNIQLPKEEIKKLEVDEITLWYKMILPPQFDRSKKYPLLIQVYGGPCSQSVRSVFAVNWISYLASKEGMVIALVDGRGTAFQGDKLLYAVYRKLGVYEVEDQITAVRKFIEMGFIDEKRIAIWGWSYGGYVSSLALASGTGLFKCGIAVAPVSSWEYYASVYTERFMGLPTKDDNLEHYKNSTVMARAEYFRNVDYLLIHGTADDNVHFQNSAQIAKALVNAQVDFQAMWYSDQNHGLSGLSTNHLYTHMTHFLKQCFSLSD
Method: (§1) Mammalian cell lines expressing recombinant FAPα were prepared. HT1080 fibrosarcoma cells, widely known and available from the DSMZ (German Collection of Microorganisms and Cell Cultures, Braunschweig, Germany) under the accession number DSMZ ACC 315, were maintained in a DMEM/F12 mix 50:50 containing 10% fetal bovine serum in an atmosphere of 95% air and 5% CO2. HT1080 cells were transfected with FAP.38 vector (WO 97/34927, Scanlan et al., loc. cit.) using the Lipofectin method according to the manufacturer's instructions (Gibco/BRL). Transfectants were selected for resistance to antibiotics (200 μg/ml Geneticin) and thereafter maintained in medium containing Geneticin. Individual colonies of resistant cells were picked, grown to confluence in 10 cm tissue culture petri dishes and tested for FAPα expression in an immunofluorescence assay using the FAPα-specific monoclonal antibody F19, as described (Garin-Chesa et al. (1990) Proc. Natl. Acad. Sci. USA 87(18), 7235-7239).
(§2) Samples were separated by reversed-phase high performance liquid chromatographic (HPLC) assay that was established to measure cleavage of doxorubicin-peptide conjugates. […] Free doxorubicin and doxorubicin-peptide conjugates were detected by fluorescence (excitation, 475 nm; emission, 585 nm) using a Waters 474 fluorescence detector. […]

[2] = test system: parental HT1080 cell line; settings: 1 μM conjugate, serum-free medium, 19 hours at 37° C.
Method: as §1, §2

[3] = molecular target: T2, soluble recombinant FAPα (FAPmCD8 fusion protein) (UniProt P01731+Q12884); experiment: Cleavage of doxorubicin-peptide conjugates by soluble recombinant FAPα (HPLC release of free doxorubicin); assay type: biochemical, human; settings: after 20 h
T2 construct: the extracellular domain of FAPα (amino acids 27 to 760), generating a fusion protein construct, FAPmCD8; extracellular domain of murine CD8α (Genbank M12825), N-terminal 189 amino acids (N); made in house; host or cells: High Five insect cells, recombinant baculovirus (pVL1393; amplified in Sf9)
T2 sequence (P01731+Q12884 fused): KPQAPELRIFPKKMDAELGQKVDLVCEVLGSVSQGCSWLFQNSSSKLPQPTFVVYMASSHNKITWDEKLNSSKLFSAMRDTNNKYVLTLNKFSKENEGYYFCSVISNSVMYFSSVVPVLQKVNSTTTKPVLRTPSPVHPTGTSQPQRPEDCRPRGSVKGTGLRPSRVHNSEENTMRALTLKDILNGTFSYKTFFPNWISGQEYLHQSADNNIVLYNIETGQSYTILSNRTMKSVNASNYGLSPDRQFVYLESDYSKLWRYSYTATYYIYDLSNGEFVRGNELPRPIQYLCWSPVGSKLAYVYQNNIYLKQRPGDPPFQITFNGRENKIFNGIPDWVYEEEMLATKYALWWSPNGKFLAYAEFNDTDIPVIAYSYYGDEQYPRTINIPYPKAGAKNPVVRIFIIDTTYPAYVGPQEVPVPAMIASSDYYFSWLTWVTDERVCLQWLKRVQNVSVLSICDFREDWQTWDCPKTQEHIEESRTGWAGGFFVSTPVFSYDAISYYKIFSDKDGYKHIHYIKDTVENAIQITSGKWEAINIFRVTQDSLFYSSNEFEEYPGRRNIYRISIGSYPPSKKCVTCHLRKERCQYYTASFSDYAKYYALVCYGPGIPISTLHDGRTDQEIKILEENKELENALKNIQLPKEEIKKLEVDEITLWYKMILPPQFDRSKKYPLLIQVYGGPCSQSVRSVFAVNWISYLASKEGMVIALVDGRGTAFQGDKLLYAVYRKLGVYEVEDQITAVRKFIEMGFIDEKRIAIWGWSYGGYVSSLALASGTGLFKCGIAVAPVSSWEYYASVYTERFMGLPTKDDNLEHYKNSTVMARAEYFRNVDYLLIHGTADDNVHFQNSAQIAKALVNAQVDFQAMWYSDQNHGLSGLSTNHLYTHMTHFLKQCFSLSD
Method: A soluble recombinant form of FAPα protein was prepared as follows. […] The cDNAs were verified by sequencing and inserted into the pVL1393 vector. […] The culture supernatant of High Five cells infected with recombinant FAPmCD8 baculovirus for four days was collected and cleared by ultracentrifugation. FAPmCD8 fusion protein was purified from such supernatants using an anti-FAPα monoclonal antibody immobilized on activated agarose beads (Pierce Chemical, Indianapolis, Ind., USA). […] The samples were immediately neutralized with a saturated Tris solution (Sigma Chemicals, St. Louis, Mo.) and protein-containing fractions were pooled.
Doxorubicin-peptide conjugate stock solutions (5 mM) were diluted with Hepes-buffered saline pH 7.4 to a final concentration of 50 to 100 μM. Twenty μl of the resulting solution was mixed with 50 μl of purified FAPmCD8 fusion protein (approximately 20 ng) described above and 30 μl Hepes-buffered saline, pH 7.4. The mixture was allowed to incubate at 37° C. for 1 day and release of free doxorubicin was measured in the HPLC assay described. Areas under each peak were quantified using the software package above and the initial value was set to 100%. The rate of release of free doxorubicin was measured by the appearance of a peak with the same retention time as free doxorubicin under these HPLC conditions. The areas under each peak were used to calculate the relative amounts of free doxorubicin to doxorubicin-peptide conjugate.

SMILES: COc1cccc2c1C(=O)c1c(O)c3c(c(O)c1C2=O)CC(O)(C(=O)CO)CC3OC1CC(NC(=O)C2CCCN2C(=O)CNC(=O)C(C)NC(=O)C2CCCN2C(=O)OCc2ccccc2)C(O)C(C)O1 (stereo not drawn) [ZPAGP-Dox, N-Cbz-Pro-Ala-Gly-Pro-Doxorubicin]
- conversion of conjugate to free doxorubicin by HT1080 clone 33 [1]: 43%
- conversion of conjugate to free doxorubicin by parental HT1080 cell line [2]: Little or no detectable conversion
- Cleavage by FAP [3]: >95%
